Values quoted from earlier work as cited in patent publication US20240350583A1, “COMPOSITION FOR PREVENTING OR TREATING FIBROTIC DISEASES, COMPRISING HAPLN1” (Chung Ang University Industry Academic Cooperation …, priority 2021, published 2024).

Tested on: bleomycin-induced pulmonary fibrosis
Conditions: group treated with prednisolone (Oku et al.); cited from earlier work

C[C@]12C=CC(=O)C=C1CC[C@@H]1[C@@H]2[C@@H](O)C[C@@]2(C)[C@H]1CC[C@]2(O)C(=O)CO [prednisolone]
level of TGFβ1, a measure of anti-fibrotic efficacy: no decrease | levels of inflammation-related biomarkers: decreased
